From the RepoRT retention time repository

Assay: Agilent ZORBAX 300 SB-C18, 150 × 1 mm, 3.5 µm; A: water + 0.01% heptafluorobutyric acid; B: acetonitrile + 0.01% heptafluorobutyric acid; gradient (min/%B) 0/0 100/90
Details: stereoisomer not certain

Row | LC retention time | SMILES
1 | 9.45 min | CC1(c2ccccc2)OCOC1=CC[N+](C)(C)C (centres undefined)
2 | 10.9 min | CN(C)CCOC(c1ccccc1)c1ccccc1
3 | 10.6 min | Cc1ccc(C)c(-c2cc(C)ncc2C)c1
4 | 8.69 min | COc1cc(Cc2cnc(N)nc2N)cc(OC)c1OC
5 | 16.7 min | CC(C)(C)c1ccc(C(=O)NC(CC(=O)O)c2ccc(C(C)(C)C)cc2)cc1 (centres undefined)
6 | 7.21 min | O=C(O)Cc1c(C(=O)O)[nH]c2ccc(C(=O)O)cc12
7 | 5.68 min | CC(=O)Nc1cc(=O)[nH]c(C)n1
8 | 20.4 min | CC(C)c1ccc(-c2cc(-c3ccccc3)c3c(ccc4ncccc43)n2)cc1
9 | 13.5 min | CCCCCCCCCCCCNC
10 | 8.07 min | O=C(O)CNC(=O)C1CCCCC1
11 | 9.56 min | CN1C(=O)NC(c2ccccc2)C2=C1CN(c1ccc(CC(=O)O)cc1)C2=O (centres undefined)
12 | 6.97 min | C=Cc1ccccn1
13 | 8.56 min | Nc1c(S(=O)(=O)O)ccc2c1C(=O)c1ccccc1C2=O
14 | 6.91 min | O=C(C[n+]1ccccc1)C1CC1
15 | 10.9 min | Nc1c2c(nc3ccccc13)N(C1CCCCC1)CC2
16 | 8.31 min | C=Cc1ccc(N)cc1
17 | 8.31 min | NC(=O)c1cnc2ccccc2n1
18 | 15.4 min | c1ccc(-c2nc3ccccc3o2)cc1
19 | 7 min | CC(=O)N1CCC(C2CCNCC2)CC1
20 | 10.2 min | O=C1CC2(CCCC2)CC(=O)N1CCCCN1CCN(c2ncccn2)CC1
21 | 7.72 min | Cc1nc(C)c(C)nc1C
22 | 7.73 min | COc1cc2c(cc1OC)NC(=O)C2
23 | 14.1 min | Oc1ccc2cccc(-n3cccc3)c2c1
24 | 13.7 min | CCc1ccc(C2Nc3ccccc3C(=O)N2c2ccc(N(C)C)cc2)cc1 (centres undefined)
25 | 9.55 min | C=CCNc1ccccc1

Row | LC retention time | SMILES
26 | 8.44 min | CC1C(=O)CCN(C(C)(C)C)C1C (centres undefined)
27 | 8.51 min | CC(C)C[NH2+]C(CC(=O)O)c1ccccc1 (centres undefined)
28 | 12.3 min | O=C(O)C1CCCc2c1[nH]c1ccccc21 (centres undefined)
29 | 7.44 min | Cc1cncc(C)n1
30 | 10.1 min | CN(C)CCN(Cc1ccccc1)c1ccccn1
31 | 12 min | Cc1ccc(-c2ccc(C(=O)O)[nH]2)cc1
32 | 12.9 min | Cc1ccc(C)n1-c1cccc(C(=O)O)c1
33 | 8.82 min | Cc1cc(C)c(-c2csc(N)n2)c(C)c1
34 | 8.45 min | COC(=O)c1cccc(C(=O)OC)n1
35 | 13.9 min | COc1ccc2c(c1)C(C)N1C(=O)c3ccccc3C1O2 (centres undefined)
36 | 9.72 min | CCN1CC(CCN2CCOCC2)C(c2ccccc2)(c2ccccc2)C1=O (centres undefined)
37 | 8.31 min | NNC(=S)Nc1ccccc1
38 | 10.1 min | c1ccc(CN(CC2=NCCN2)c2ccccc2)cc1
39 | 13.5 min | CCCCCCCCCC(=O)NCCCCC(=O)O
40 | 7.3 min | O=C(O)Cn1cnc2ccccc2c1=O
41 | 19.5 min | CC(C)Cn1c2ccccc2c2ccccc21
42 | 15.5 min | O=C(CNc1cccc2ccccc12)NN=CC=Cc1ccccc1
43 | 8.8 min | c1ccc(Nc2ncnc3nc[nH]c23)cc1
44 | 6.49 min | CN(C)C(=N)N(C)C
45 | 9.85 min | Cc1cnc2c(ccc3c(C)c(C)cnc32)c1C
46 | 10.1 min | c1ccc(CC2CCN(Cc3ccccn3)CC2)cc1
47 | 11.1 min | Cc1cc2n(n1)c1cc(C)nn1c1cc(C)nn21
48 | 8.31 min | O=c1c2ccccc2nnn1Cc1ccncc1
49 | 17.5 min | Cc1ccc2cccc(SC(c3ccccc3)c3ccccc3)c2n1
50 | 6.66 min | Cc1ccc(C)nc1

Row | LC retention time | SMILES
51 | 10.2 min | COc1ccc(NC(=O)Nc2ccc(OC)c(OC)c2)cc1OC
52 | 9.16 min | CCOc1ccccc1NC(=O)c1cc(=O)[nH]c(=O)[nH]1
53 | 19.2 min | Cc1c(-c2ccccc2)cc(-c2ccccc2)nc1-c1ccccc1
54 | 8.38 min | NC(CCC(=O)OCc1ccccc1)C(=O)O (centres undefined)
55 | 11.8 min | c1ccn(-c2ccc3cn[nH]c3c2)c1
56 | 11.5 min | CC(C)(C(=O)O)c1ccc(C(O)CCCN2CCC(C(O)(c3ccccc3)c3ccccc3)CC2)cc1 (centres undefined)
57 | 9.65 min | CN(Cc1ccccc1)C(=S)Nc1cccnc1
58 | 15 min | CCCCN(C)C(=O)Cn1c(=O)c2c(C)cc(C)nc2n(-c2ccccc2)c1=O
59 | 10.1 min | CC1(C)Cc2ccccc2C(C2=C(O)CCCC2=O)=N1
60 | 10.9 min | C1CCC(OCCN2CCN(CCOC3CCCCC3)CC2)CC1
61 | 10 min | COc1ccc(NC(=O)Nc2ccc(OCC(=O)N3CCOCC3)cc2)cc1
62 | 7.5 min | NCCNCCNCCN
63 | 17.6 min | CC(C)c1cccc(C(C)C)c1NC(=O)COC(=O)CNC(=O)c1ccc(C(C)(C)C)cc1
64 | 11.9 min | C=C(C)CC1C=CCC(CC(=C)C)N1Cc1ccccc1 (centres undefined)
65 | 12 min | C1CCC(OCCNCCOC2CCCCC2)CC1
66 | 9.57 min | Nc1ccc2oc3c(c2c1)CCCC3
67 | 12.8 min | CC(C)c1ccc(C=NNC(N)=S)cc1
68 | 7.29 min | COc1ccc(C(=O)NCC(=O)NN)cc1OC
69 | 9.8 min | CNC(=O)c1cc2c(n(-c3ccccc3)c1=O)CCCC2=O
70 | 11 min | Cc1ccc(OCCOCn2c(C)cc(=O)[nH]c2=O)cc1
71 | 7.54 min | C[N+](C)(N)Cc1ccccc1
72 | 11.7 min | c1ccc(CNCCc2csc3c2CCCC3)cc1
73 | 8.79 min | C=CCC(N)(CC=C)C1=CC(CC(=C)C)NC(CC(=C)C)C1 (centres undefined)
74 | 1.66 min | O=C(O)CNC(CO)(CO)CO
75 | 8.11 min | CCOC(CN1CCCCC1)OCC

Row | LC retention time | SMILES
76 | 7.45 min | CCCCN1CNC(=S)NC1
77 | 15 min | CCOc1ccc(C(=O)NNC(=O)COc2ccc(C(C)CC)cc2)cc1 (centres undefined)
78 | 12.6 min | Cc1cccc2cc[nH]c12
79 | 8.83 min | O=c1ccc2ccccc2[nH]1
80 | 8.44 min | CNCCCc1cc(C)ccc1O
81 | 9.12 min | c1cc2c(cc1NC1=NCCCCC1)OCCO2
82 | 13.2 min | Cc1ccc(NC(=O)c2c(C)[nH]c(C)c2C)c(C)c1
83 | 11.2 min | CCNC(=S)NCCc1c[nH]c2ccccc12
84 | 15.9 min | O=C(OCC(c1ccccc1)c1ccccc1)c1cccnc1
85 | 2.85 min | OCC1CC(O)CN1 (centres undefined)
86 | 6.34 min | CCOC(=O)CN
87 | 8.67 min | NCCCSc1ccccc1
88 | 9.03 min | CCOC(=O)C(N)Cc1ccccc1 (centres undefined)
89 | 7.29 min | CN(C)CCNC1=CC(=O)CC(C)(C)C1
90 | 3.03 min | O=C(O)c1cncc(C(=O)O)c1
91 | 6.9 min | CN(C)CCN(C)CCN(C)C
92 | 6.42 min | NCCN1CCNCC1
93 | 13.3 min | CC(=O)Oc1ccc2c(c1)cc(C)n2C
94 | 8.72 min | CCN(CC)C(=O)N1CCN(c2ccc(N)cc2)CC1
95 | 11.9 min | CCN(CCCCOC(=O)c1ccc(OC)c(OC)c1)C(C)Cc1ccc(OC)cc1 (centres undefined)
96 | 7.2 min | CNCC(O)c1cccc(O)c1 (centres undefined)
97 | 10.8 min | CC(=NNc1ccccc1)C1=C(C)NC(=O)NC1c1ccccc1 (centres undefined)
98 | 12.8 min | CCOC(=O)C(=CNc1ccccc1N)C(=O)OCC
99 | 14.3 min | O=C(NCCCCc1ccccc1)C(=O)NCc1ccco1
100 | 7.87 min | NCc1nccc2ccccc12

Row | LC retention time | SMILES
101 | 7.28 min | c1cc(CCc2ccncc2)ccn1
102 | 12.2 min | CCCCCCCCCCCN
103 | 7.35 min | CN(C)CCCNCCCN
104 | 8.37 min | Cc1nn(CC(=O)NCc2ccccn2)c(=O)c2ccccc12
105 | 10.7 min | COc1ccc(NC(C)c2ccccc2)cc1 (centres undefined)
106 | 9.89 min | CCCCCCN1CNC(=S)NC1
107 | 8.12 min | CCN(CC)c1nc(N)nc(N2N=CC=NN2)n1
108 | 12.1 min | S=c1[nH]c2ccccc2c2c1CCC2
109 | 14.8 min | COC(=O)c1ccc2[nH]c3c(c2c1)CCCC3
110 | 11.8 min | O=c1[nH]c(N=NCc2c[nH]c3ccccc23)nnc1-c1ccccc1
111 | 17 min | Cc1cccn2cc(-c3cccs3)cc12
112 | 7.68 min | CCNCc1ccccc1
113 | 13.3 min | CCCCN=CC1=C(O)CC(c2ccccc2)CC1=O (centres undefined)
114 | 1.62 min | Cc1ncc(C[n+]2csc(CCOP(=O)(O)OP(=O)(O)O)c2C)c(N)n1
115 | 7.12 min | c1cc(C2=NC(c3ccncc3)C(c3ccncc3)N2)ccn1 (centres undefined)
116 | 8.49 min | Cn1c(=O)n(C)c2cc(N3CCCCC3)c(N)cc21
117 | 9.6 min | CN1C(=O)NC(c2ccc(O)cc2)C2=C1CN(Cc1ccccc1)C2=O (centres undefined)
118 | 8.41 min | CC(C(=O)O)n1cccc1 (centres undefined)
119 | 10.8 min | CC(=O)c1cc2ccccc2oc1=O
120 | 9.07 min | Nc1ccc(C(O)(c2ccc(N)cc2)c2ccc(N)cc2)cc1
121 | 12.4 min | Cc1cc(C)c2ccc3ccccc3c2n1

Row | SMILES | LC retention time
122 | Nc1ccc2c(c1)oc1ccccc12 | 11.6 min
123 | CCC1(c2ccccc2)C(=O)NC(=O)N(C)C1=O (centres undefined) | 11.3 min
124 | Cc1ccc(NC2=NCC(C)S2)cc1C (centres undefined) | 9.88 min
125 | O=C(O)c1ccc(=O)[nH]c1 | 4.42 min
126 | Nc1cccnc1 | 5.54 min
127 | CN1CCC(OC(=O)Cc2ccccc2)CC1 | 8.85 min
128 | CN1C2CCC1C(C(=O)O)C(OC(=O)c1ccccc1)C2 (centres undefined) | 8.54 min
129 | CN(C)CCCN1CCC(=O)C2CCCCC21 (centres undefined) | 7.52 min
